Reference: ChEMBL document CHEMBL1201862, “PubChem BioAssay data set” (2004)
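1) Cells in 96-well plates. 2) Compound, 48 h, 5 concentrations. 3) Linear interpolation between surrounding doses. 4) Unreached endpoint = highest concentration. GI50 = concentration required for 50% inhibition of growth.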 The source made the active and inactive calls. No stated cut-off is given here; in the data, active = GI50 up to about 1.1 µM and inactive = higher.

Assays:
Assay in all cases: NCI-60 cell line screen, 48 h
K562 = tested on: K562
TK-10 = tested on: TK-10
OVCAR-8 = tested on: OVCAR-8
RXF 393 = tested on: RXF 393
DLD-1 = tested on: DLD-1
HOP-92 = tested on: HOP-92
SK-OV-3 = tested on: SK-OV-3
CAKI-1 = tested on: CAKI-1
OVCAR-3 = tested on: OVCAR-3
UACC-257 = tested on: UACC-257
SK-MEL-28 = tested on: SK-MEL-28
HCT-15 = tested on: HCT-15
HT-29 = tested on: HT-29
SF-295 = tested on: SF-295
SNB-78 = tested on: SNB-78
NCI-H522 = tested on: NCI-H522
NCI-H23 = tested on: NCI-H23
M19-MEL = tested on: M19-MEL
A549 = tested on: A549
HCT-116 = tested on: HCT-116
DMS-114 = tested on: DMS-114
NCI-H226 = tested on: NCI-H226
ACHN = tested on: ACHN
786-0 = tested on: 786-0
IGROV-1 = tested on: IGROV-1
SF-539 = tested on: SF-539
DMS-273 = tested on: DMS-273
MOLT-4 = tested on: MOLT-4
A498 = tested on: A498
M14 = tested on: M14
SK-MEL-5 = tested on: SK-MEL-5
NCI-H460 = tested on: NCI-H460
U-251 = tested on: U-251
SNB-75 = tested on: SNB-75
RXF 631 = tested on: RXF 631
HL-60 = tested on: HL-60
SW-620 = tested on: SW-620
Malme-3M = tested on: Malme-3M
SN12C = tested on: SN12C
KM12 = tested on: KM12
CCRF-CEM = tested on: CCRF-CEM
LXFL 529 = tested on: LXFL 529
RPMI-8226 = tested on: RPMI-8226
COLO 205 = tested on: COLO 205
LOX IMVI = tested on: LOX IMVI
HOP-18 = tested on: HOP-18
UO-31 = tested on: UO-31
UACC-62 = tested on: UACC-62
EKVX = tested on: EKVX
SR = tested on: SR
OVCAR-5 = tested on: OVCAR-5
SNB-19 = tested on: SNB-19
SF-268 = tested on: SF-268
KM-20L2 = tested on: KM-20L2
HCC 2998 = tested on: HCC 2998
HOP-62 = tested on: HOP-62
SK-MEL-2 = tested on: SK-MEL-2
OVCAR-4 = tested on: OVCAR-4
MDA-N = tested on: MDA-N
DU-145 = tested on: DU-145
MDA-MB-435 = tested on: MDA-MB-435
MDA-MB-231 = tested on: MDA-MB-231
PC-3 = tested on: PC-3
T47D = tested on: T47D
NCI/ADR-RES = tested on: NCI/ADR-RES
MCF7 = tested on: MCF7
XF498 = tested on: XF498
Hs-578T = tested on: Hs-578T
BT-549 = tested on: BT-549

## COC(=O)Cc1c([C@@]2(C)CCCC(C)(C)C2)ccc2c1C(=O)OC2
K562
  GI50: 4.02 µM (inactive)
TK-10
  GI50: 17.9 µM (inactive)
OVCAR-8
  GI50: 15.3 µM (inactive)
RXF 393
  GI50: 10.4 µM (inactive)
DLD-1
  GI50: 3.62 µM (inactive)
HOP-92
  GI50: 3.01 µM (inactive)
SK-OV-3
  GI50: 14 µM (inactive)
CAKI-1
  GI50: > 10 µM (inactive)
OVCAR-3
  GI50: 5.25 µM (inactive)
UACC-257
  GI50: 5.66 µM (inactive)
SK-MEL-28
  GI50: 13.1 µM (inactive)
HCT-15
  GI50: 6.44 µM
HT-29
  GI50: 10.8 µM (inactive)
SF-295
  GI50: 10.3 µM (inactive)
SNB-78
  GI50: 14.9 µM (inactive)
NCI-H522
  GI50: 5.04 µM (inactive)
NCI-H23
  GI50: 9.35 µM (inactive)
M19-MEL
  GI50: 15.1 µM (inactive)
A549
  GI50: 9.84 µM (inactive)
HCT-116
  GI50: 5.64 µM (inactive)
DMS-114
  GI50: 3.96 µM (inactive)
NCI-H226
  GI50: 11.2 µM (inactive)
ACHN
  GI50: 11.7 µM (inactive)
786-0
  GI50: 15.7 µM (inactive)
IGROV-1
  GI50: 15 µM (inactive)
SF-539
  GI50: 15.6 µM (inactive)
DMS-273
  GI50: 5.43 µM (inactive)
MOLT-4
  GI50: 3.92 µM (inactive)
A498
  GI50: 25.5 µM (inactive)
M14
  GI50: 10.5 µM (inactive)
SK-MEL-5
  GI50: 7.36 µM (inactive)
NCI-H460
  GI50: 8.83 µM (inactive)
U-251
  GI50: 13.3 µM (inactive)
SNB-75
  GI50: 14.3 µM (inactive)
RXF 631
  GI50: 12.9 µM (inactive)
HL-60
  GI50: 3.42 µM (inactive)
SW-620
  GI50: 18.9 µM (inactive)
Malme-3M
  GI50: 17.9 µM (inactive)
SN12C
  GI50: 10.1 µM (inactive)
KM12
  GI50: 8.15 µM (inactive)
CCRF-CEM
  GI50: 6.49 µM (inactive)
LXFL 529
  GI50: 7.29 µM (inactive)
RPMI-8226
  GI50: 2.7 µM (inactive)
COLO 205
  GI50: 6.7 µM (inactive)
LOX IMVI
  GI50: 11.2 µM (inactive)
HOP-18
  GI50: 18.3 µM (inactive)
UO-31
  GI50: 3.58 µM (inactive)
UACC-62
  GI50: 10.6 µM (inactive)
EKVX
  GI50: 18.1 µM (inactive)

## COc1cc(Br)c(CC2=NCCc3cc(OC)c(OC)cc32)cc1OC
K562
  GI50: 5.4 µM (inactive)
TK-10
  GI50: 5.65 µM (inactive)
OVCAR-8
  GI50: 48.1 µM (inactive)
DLD-1
  GI50: 45.4 µM (inactive)
HOP-92
  GI50: 1.64 µM (inactive)
SK-OV-3
  GI50: 24.6 µM (inactive)
CAKI-1
  GI50: 15.9 µM (inactive)
OVCAR-3
  GI50: 42.9 µM (inactive)
UACC-257
  GI50: 16.6 µM (inactive)
SR
  GI50: 6.78 µM (inactive)
SK-MEL-28
  GI50: 19.7 µM (inactive)
HCT-15
  GI50: 31 µM
HT-29
  GI50: 2.16 µM (inactive)
SF-295
  GI50: 0.7 µM (active)
OVCAR-5
  GI50: 3.88 µM (inactive)
NCI-H522
  GI50: 16.9 µM (inactive)
NCI-H23
  GI50: 9.71 µM (inactive)
SNB-19
  GI50: 48.8 µM (inactive)
M19-MEL
  GI50: 27.9 µM (inactive)
A549
  GI50: 21.1 µM (inactive)
HCT-116
  GI50: 3.16 µM (inactive)
DMS-114
  GI50: 8.89 µM (inactive)
NCI-H226
  GI50: 11 µM (inactive)
ACHN
  GI50: 14.8 µM (inactive)
786-0
  GI50: 16.7 µM (inactive)
IGROV-1
  GI50: 12.2 µM (inactive)
SF-539
  GI50: 11.7 µM (inactive)
DMS-273
  GI50: 15.9 µM (inactive)
SF-268
  GI50: 51.2 µM (inactive)
MOLT-4
  GI50: 15.8 µM (inactive)
A498
  GI50: 14.9 µM (inactive)
M14
  GI50: 12.9 µM (inactive)
KM-20L2
  GI50: 3.18 µM (inactive)
SK-MEL-5
  GI50: 16.7 µM (inactive)
HCC 2998
  GI50: 16.4 µM (inactive)
NCI-H460
  GI50: 2.35 µM (inactive)
U-251
  GI50: 11.3 µM (inactive)
SNB-75
  GI50: 36.3 µM (inactive)
RXF 631
  GI50: 10.2 µM (inactive)
HL-60
  GI50: 2.33 µM (inactive)
SW-620
  GI50: 18 µM (inactive)
Malme-3M
  GI50: 25.9 µM (inactive)
SN12C
  GI50: 15.3 µM (inactive)
KM12
  GI50: 20.9 µM (inactive)
CCRF-CEM
  GI50: 19.7 µM (inactive)
LXFL 529
  GI50: 12.5 µM (inactive)
RPMI-8226
  GI50: 18.3 µM (inactive)
COLO 205
  GI50: 14.1 µM (inactive)
LOX IMVI
  GI50: 9.93 µM (inactive)
HOP-18
  GI50: 11.3 µM (inactive)
HOP-62
  GI50: > 100 µM (inactive)
SK-MEL-2
  GI50: 53.1 µM (inactive)
UO-31
  GI50: 11.3 µM (inactive)
UACC-62
  GI50: 7.13 µM (inactive)
EKVX
  GI50: 35.7 µM (inactive)
OVCAR-4
  GI50: 28.9 µM (inactive)

## CCOC(=O)NC1=C(N2CC2)C(=O)C(NC(=O)OCC)=C(N2CC2)C1=O [DIAZIQUONE]
K562
  GI50: 5.43 µM (inactive)
TK-10
  GI50: 31.6 µM (inactive)
OVCAR-8
  GI50: 3.73 µM (inactive)
RXF 393
  GI50: 4.68 µM (inactive)
DLD-1
  GI50: 7.38 µM (inactive)
HOP-92
  GI50: 5.51 µM (inactive)
SK-OV-3
  GI50: 4.52 µM (inactive)
CAKI-1
  GI50: 1.08 µM (active)
OVCAR-3
  GI50: 4.75 µM (inactive)
MDA-N
  GI50: 3.4 µM (inactive)
UACC-257
  GI50: 4.65 µM (inactive)
SR
  GI50: 0.339 µM (active)
SK-MEL-28
  GI50: 13 µM (inactive)
DU-145
  GI50: 1.9 µM (inactive)
HCT-15
  GI50: 7.69 µM
MDA-MB-435
  GI50: 3.58 µM (inactive)
HT-29
  GI50: 7.73 µM (inactive)
SF-295
  GI50: 1.12 µM (active)
OVCAR-5
  GI50: 7.85 µM (inactive)
SNB-78
  GI50: 7.36 µM (inactive)
NCI-H522
  GI50: 3.14 µM (inactive)
NCI-H23
  GI50: 1.85 µM (inactive)
SNB-19
  GI50: 4.11 µM (inactive)
M19-MEL
  GI50: 5.38 µM (inactive)
MDA-MB-231
  GI50: 8.13 µM (inactive)
HCT-116
  GI50: 3.53 µM (inactive)
DMS-114
  GI50: 2.01 µM (inactive)
PC-3
  GI50: 4.36 µM (inactive)
NCI-H226
  GI50: 4.23 µM (inactive)
ACHN
  GI50: 0.82 µM (active)
786-0
  GI50: 1.56 µM (inactive)
IGROV-1
  GI50: 5.33 µM (inactive)
T47D
  GI50: 6.21 µM (inactive)
SF-539
  GI50: 1.75 µM (inactive)
DMS-273
  GI50: 0.596 µM (active)
SF-268
  GI50: 2.81 µM (inactive)
MOLT-4
  GI50: 1.38 µM (inactive)
NCI/ADR-RES
  GI50: 3.48 µM (inactive)
A498
  GI50: 3.56 µM (inactive)
M14
  GI50: 2.62 µM (inactive)
KM-20L2
  GI50: 6.93 µM (inactive)
SK-MEL-5
  GI50: 3.72 µM (inactive)
HCC 2998
  GI50: 6.85 µM (inactive)
MCF7
  GI50: 1.98 µM (inactive)
XF498
  GI50: 3.67 µM (inactive)
NCI-H460
  GI50: 0.188 µM (active)
U-251
  GI50: 2.51 µM (inactive)
SNB-75
  GI50: 4.73 µM (inactive)
HL-60
  GI50: 0.357 µM (active)
SW-620
  GI50: 4.97 µM (inactive)
Malme-3M
  GI50: 6.49 µM (inactive)
SN12C
  GI50: 1.36 µM (inactive)
KM12
  GI50: 8.81 µM (inactive)
CCRF-CEM
  GI50: 1.37 µM (inactive)
LXFL 529
  GI50: 4.92 µM (inactive)
RPMI-8226
  GI50: 3.99 µM (inactive)
COLO 205
  GI50: 7.69 µM (inactive)
LOX IMVI
  GI50: 2.31 µM (inactive)
HOP-18
  GI50: 6.35 µM (inactive)
HOP-62
  GI50: 0.741 µM (active)
SK-MEL-2
  GI50: 5.96 µM (inactive)
Hs-578T
  GI50: 13.2 µM (inactive)
UO-31
  GI50: 5.56 µM (inactive)
BT-549
  GI50: 11.4 µM (inactive)
UACC-62
  GI50: 0.489 µM (active)
EKVX
  GI50: 6.37 µM (inactive)
OVCAR-4
  GI50: 4.9 µM (inactive)
